Drawing on US9617212B2, “Isoindolin-1-ones as macrophage migration inhibitory factor (MIF) inhibitors” (Controlled Chemicals, Inc., priority 2013, dated 2017), this text covers IC50 for 68 compounds.

The IC50 is the concentration that gives 50% inhibition.

The target in this experiment is T1, Human MIF (MIF tautomerase) (Homo sapiens, UniProt P14174).
T1 construct: purchased ProSpec
T1 sequence (P14174 2-115 limits assumed): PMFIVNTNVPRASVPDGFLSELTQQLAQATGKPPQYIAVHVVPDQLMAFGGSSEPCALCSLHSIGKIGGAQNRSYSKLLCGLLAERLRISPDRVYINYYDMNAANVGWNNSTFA
The experiment can be described thus: MIF Tautomerase Inhibitory Assay with L-Dopachrome Methyl Ester. Format: biochemical. The following applies: relative potency class, MIF tautomerase inhibition; L-dopachrome methyl ester substrate, pH 7.34, no pre-incubation; read-out: IC50. On the procedure: MIF Tautomerase Inhibitory Assay with L-Dopachrome Methyl Ester
Assay Method (pH 7.34, 0.017-0.033% DMSO, 0.034% EtOH): A fresh stock solution of L-dopachrome methyl ester in MeOH was prepared at 55-65 mM through oxidation of L-3,4-dihydroxyphenylalanine methyl ester hydrochloride with sodium periodate according to the procedure described in WO9729635A1. MeOH was removed from 0.5 mL of the L-dopachrome methyl ester/MeOH solution (55-65 mM) under a stream of argon and the residue taken up in appropriate amount of water to prepare a substrate solution (7-10 mM). Active Human MIF (from ProSpec) ([…]) was dissolved in 675 μL 0.1% bovine serum albumin (BSA) in water, and the resultant MIF solution (1 volume) mixed with 55 volumes of Na2HPO4 buffer (50 mM, pH 7.34) to form a 265 ng/mL MIF working solution. MIF working solution (280 μL) or a no-MIF working solution (prepared by mixing 0.1% BSA (1 volume) with the aforementioned Na2HPO4 buffer (55 volumes)) was transferred to wells in a column of 8 wells on a 96-well plate in a Plate Reader (SPECTRAmax Plus 384, Molecular Devices), and 5 μL of H2O/DMSO (99/1) containing no inhibitor or an inhibitor (whose concentration was verified by HPLC). Without pre-mixing or pre-incubation, 10 μL freshly prepared L-dopachrome methyl ester/H2O solution (7-10 mM) was added to each well with a multi-pipet. The assay samples were mixed immediately by sucking up and expelling the contents of the wells three times with a multi-pipet. The absorbance (A1) at 475 nm was then recorded for each sample every 2 s for 3 min. After 5-6 min, the samples were monitored again for 3 min with a reading every two seconds at 475 nm (A2). It can be shown that when [substrate]<<Km, plots of Ln(A1−A2) versus time are linear with slopes m (Eq 1). IC50 values were estimated from Eq 2-5, the inhibitor concentration [I] in the assay mixture and values of m in the presence (mi), absence (mo) of the inhibitor, the value of m observed for the non-MIF blank (mn), the MIF concentration (e), and the specificity constant for the MIF catalyzed reaction (kcat/Km). Ln(A1−A2)=−mt (Eq 1) F=(mi−mn)/(mo−mn) (Eq 2) Wherein mo−mn=ekcat/Km (Eq 3) and mi−mn=(ekcat/Km)[…] (Eq 4) IC50=[I]F/(1−F) (Eq 5)
The compounds listed in Table 1, provided herein, were prepared via procedures identical or similar to those described in the Examples 1-85. The listed compounds were >95% pure by HPLC. Each listed compound yielded a mass spectrum consistent with its structure. Concentrations of MIF tautomerase inhibitors used in the assay were verified by HPLC and the extinction coefficients of the inhibitors. The designated relative potency of MIF tautomerase inhibitors is based on the IC50 as determined by the method described in Biochemical Assay as follows: A, IC50<1 μM; B, 1 μM≦IC50<5 μM; C, 5 μM≦IC50<10 μM; D, 10 μM≦IC50<50 μM; E, 50 μM≦IC50<200 μM.

As for `CC(NC(CO)CO)C1CCC(CN2Cc3ccc(O)c(F)c3C2=O)CC1` (centres unmarked), the half-maximal inhibitory concentration (IC50) was < 1 µM.
Take `CC(N[C@@H](C)C(=O)O)C1CCC(CN2Cc3ccc(O)c(F)c3C2=O)CC1` (some centres unmarked): the 50% inhibitory concentration (IC50) was < 1 µM.
Under `CC(C)(N)[C@H]1CC[C@H](CN2Cc3ccc(O)c(F)c3C2=O)CC1` stands < 1 µM; under `COc1cc(OC(C)[C@H]2CC[C@H](CN3Cc4ccc(O)c(F)c4C3=O)CC2)ccc1F` (some centres unmarked), < 1 µM.
As for `CC(N)[C@H]1CC[C@H](CN2Cc3cc(Cl)c(O)c(F)c3C2=O)CC1` (some centres unmarked), the concentration for half-maximal inhibition (IC50) lay in the range of 1 to 5 µM.
Under `COC(=O)[C@H](NC(C)C1CCC(CN2Cc3ccc(O)c(F)c3C2=O)CC1)C(C)C` (some centres unmarked) stands < 1 µM.
Under `O=C1c2cc(O)ccc2CN1CCC1CCCCC1` stands 5 to 10 µM; under `O=C1c2c(ccc(O)c2F)CN1C[C@H]1CC[C@H](COc2cccc(F)c2)CC1`, < 1 µM.
`O=C1c2cc(O)ccc2CN1CC1CCCCC1`: the half-maximal inhibitory concentration (IC50) is 1 to 5 µM.
In the case of `O=C1c2cc(O)ccc2CN1C[C@H]1CC[C@H](C(=O)OC2CCCC2)CC1`, the IC50 lay in the range of 5 to 10 µM.
Then `O=C1c2cc(O)ccc2CN1C1CCCCC1`, with 5 to 10 µM.
Under `COC(=O)[C@@H](C)NC(C)C1CCC(CN2Cc3ccc(O)c(F)c3C2=O)CC1` (some centres unmarked) [drawing 112] stands < 1 µM; under `CNC(=O)[C@H]1CC[C@H](CN2Cc3ccc(O)cc3C2=O)CC1`, 1 to 5 µM; under `CC(Oc1cccc(OCCN)c1)[C@H]1CC[C@H](CN2Cc3ccc(O)c(F)c3C2=O)CC1` (some centres unmarked), < 1 µM.
Under `CC(N[C@@H](C(=O)O)C(C)C)C1CCC(CN2Cc3ccc(O)c(F)c3C2=O)CC1` (some centres unmarked) stands < 1 µM; under `COC(C)[C@H]1CC[C@H](CN2Cc3ccc(O)c(F)c3C2=O)CC1` (some centres unmarked), 1 to 5 µM; under `O=C1c2cc(O)ccc2CN1[C@@H](CO)C1CCCCC1`, 10 to 50 µM.
Turning to `C[C@H](O)[C@H]1CC[C@H](CN2Cc3ccc(O)c(F)c3C2=O)CC1`, the half-maximal inhibitory concentration (IC50) is < 1 µM.
Take `COc1cccc(OC(C)[C@H]2CC[C@H](CN3Cc4ccc(O)c(F)c4C3=O)CC2)c1` (some centres unmarked): the half-inhibitory concentration (IC50) was < 1 µM.
Under `CNC(=O)[C@H](Cc1ccccc1)NC(C)C1CCC(CN2Cc3ccc(O)c(F)c3C2=O)CC1` (some centres unmarked) [drawing 100] stands < 1 µM; under `CC(C)(C)COC(=O)[C@H]1CC[C@H](CN2Cc3ccc(O)cc3C2=O)CC1`, < 1 µM; under `O=C1c2cc(O)ccc2CN1C[C@H]1CC[C@H](CN2CCOCC2)CC1`, 1 to 5 µM.
Under `O=C(OC1CCCC1)C1CCC(CCN2Cc3ccc(O)cc3C2=O)CC1` (centres unmarked) [drawing 139] stands 1 to 5 µM.
Then `CC([C@H]1CC[C@H](CN2Cc3ccc(O)cc3C2=O)CC1)N1CCOCC1` (some centres unmarked), with < 1 µM; and `CCCNC(C)[C@H]1CC[C@H](CN2Cc3ccc(O)cc3C2=O)CC1` (some centres unmarked), with 1 to 5 µM.
As for `COC(=O)[C@H](NC(C)[C@H]1CC[C@H](CN2Cc3ccc(O)c(F)c3C2=O)CC1)C(C)C` (single isomer, unassigned), the IC50 is < 1 µM.
Then `O=C1c2cc(O)ccc2CN1CCc1cccc(F)c1`, with 5 to 10 µM.
Under `CC(Oc1cccc(F)c1)[C@H]1CC[C@H](CN2Cc3cc(F)c(O)cc3C2=O)CC1` (mixture of isomers) [drawing 62] stands < 1 µM.
Then `CC(C)[C@@H](CO)NC(C)[C@H]1CC[C@H](CN2Cc3ccc(O)cc3C2=O)CC1` (some centres unmarked) [drawing 150], with 1 to 5 µM; and `CC(Oc1cccc(F)c1)[C@H]1CC[C@H](CN2Cc3ccc(O)cc3C2=O)CC1` (some centres unmarked), with < 1 µM; and `CC(C)(O)[C@H]1CC[C@H](CN2Cc3ccc(O)cc3C2=O)CC1`, with < 1 µM.
`CC1CCCCC1N1Cc2ccc(O)cc2C1=O` (centres unmarked): the IC50 was in the range of 10 to 50 µM.
With `C[C@@H](OC(=O)CCC(=O)O)[C@H]1CC[C@H](CN2Cc3ccc(O)c(F)c3C2=O)CC1` (single isomer, unassigned), the IC50 is < 1 µM.
Then `O=C1c2cc(O)ccc2CN1C[C@H]1CC[C@H](COc2ccccc2)CC1`, with < 1 µM.
For `O=C(OC1CCCCC1)c1ccc(CN2Cc3ccc(O)cc3C2=O)cc1`, the half-inhibitory concentration (IC50) fell in the range of 10 to 50 µM.
As for `COc1cccc(OC(C)[C@H]2CC[C@H](CN3Cc4cc(F)c(O)c(F)c4C3=O)CC2)c1` (some centres unmarked), the IC50 was < 1 µM.
Under `CNCCOc1cccc(OC[C@H]2CC[C@H](CN3Cc4ccc(O)c(F)c4C3=O)CC2)c1` stands < 1 µM; under `O=C1c2cc(O)ccc2CN1CCc1cccc(O)c1`, 1 to 5 µM; under `CCC(O)[C@H]1CC[C@H](CN2Cc3ccc(O)c(F)c3C2=O)CC1` (some centres unmarked), < 1 µM.
Under `O=C1c2c(ccc(O)c2F)CN1C[C@H]1CC[C@H](CO)CC1` stands < 1 µM.
Then `CC(C)[C@@H](NC(C)[C@H]1CC[C@H](CN2Cc3ccc(O)c(F)c3C2=O)CC1)C(=O)O` (single isomer, unassigned), with < 1 µM; and `CC1CCC(N2Cc3ccc(O)cc3C2=O)CC1` (centres unmarked), with 1 to 5 µM.
With `CC(C)NC(C)[C@H]1CC[C@H](CN2Cc3cc(F)c(O)c(F)c3C2=O)CC1` (some centres unmarked), the concentration for half-maximal inhibition (IC50) was < 1 µM.
As for `CC(N)[C@H]1CC[C@H](CN2Cc3ccc(O)cc3C2=O)CC1` (some centres unmarked), the half-maximal inhibitory concentration (IC50) lay within 1 to 5 µM.
Then `COC(=O)[C@H](C)NC(C)[C@H]1CC[C@H](CN2Cc3ccc(O)c(F)c3C2=O)CC1` (single isomer, unassigned), with < 1 µM; and `CC(C)NC(C)[C@H]1CC[C@H](CN2Cc3ccc(O)cc3C2=O)CC1` (some centres unmarked), with 1 to 5 µM.
Then `CC(O)[C@H]1CC[C@H](CN2Cc3cc(F)c(O)cc3C2=O)CC1` (some centres unmarked), with < 1 µM.
Then `COC(=O)CCN1Cc2ccc(O)cc2C1=O`, with 5 to 10 µM; and `CC(C)C[C@@H](NC(C)C1CCC(CN2Cc3ccc(O)c(F)c3C2=O)CC1)C(=O)O` (some centres unmarked) [drawing 107], with < 1 µM; and `CC(N)[C@H]1CC[C@H](CN2Cc3ccc(O)c(F)c3C2=O)CC1` (some centres unmarked), with < 1 µM.
For `CNCCOc1cccc(OC(C)[C@H]2CC[C@H](CN3Cc4ccc(O)c(F)c4C3=O)CC2)c1` (some centres unmarked), the half-inhibitory concentration (IC50) was < 1 µM.
Under `COC(=O)[C@@H](CO)NC(C)C1CCC(CN2Cc3ccc(O)c(F)c3C2=O)CC1` (some centres unmarked) stands < 1 µM; under `CC(N)[C@H]1CC[C@H](CN2Cc3cc(F)c(O)c(F)c3C2=O)CC1` (some centres unmarked), 1 to 5 µM; under `O=C1c2cc(O)ccc2CN1C[C@H]1CC[C@H](C(O)CCC2CCCCC2)CC1` (some centres unmarked), < 1 µM.
Then `CCC(Oc1cccc(OC(F)(F)F)c1)C1CCC(CN2Cc3ccc(O)c(F)c3C2=O)CC1` (centres unmarked), with < 1 µM; and `CC(N[C@H](CO)C(=O)O)[C@H]1CC[C@H](CN2Cc3ccc(O)c(F)c3C2=O)CC1` (single isomer, unassigned), with < 1 µM.
In the case of `CCCC(Oc1cccc(F)c1)[C@H]1CC[C@H](CN2Cc3ccc(O)cc3C2=O)CC1` (some centres unmarked), the IC50 was < 1 µM.
Then `O=C1c2cc(O)ccc2CN1C[C@H]1CC[C@H](COc2cc(O)cc(F)c2)CC1`, with 1 to 5 µM; and `O=C1c2cc(O)ccc2CN1CC1CCC(O)CC1` (centres unmarked), with 1 to 5 µM.
Then `CC([C@H]1CC[C@H](CN2Cc3ccc(O)c(F)c3C2=O)CC1)N1CCOCC1` (some centres unmarked), with < 1 µM; and `CC(C)OC(=O)[C@H]1CC[C@H](CN2Cc3ccc(O)cc3C2=O)CC1`, with < 1 µM.
Then `CCC(Oc1cccc(OC)c1)[C@H]1CC[C@H](CN2Cc3ccc(O)c(F)c3C2=O)CC1` (some centres unmarked), with < 1 µM; and `COC(=O)CCNC(C)C1CCC(CN2Cc3ccc(O)c(F)c3C2=O)CC1` (centres unmarked), with < 1 µM.
For the compound `CC(Oc1cccc(F)c1)[C@H]1CC[C@H](CN2Cc3cc(F)c(O)cc3C2=O)CC1` (some centres unmarked), the IC50 is < 1 µM.
Under `CC(O)[C@H]1CC[C@H](CN2Cc3ccc(O)c(F)c3C2=O)CC1` (some centres unmarked) stands < 1 µM.
Then `COC(=O)[C@H](C)NC(C)C1CCC(CN2Cc3ccc(O)c(F)c3C2=O)CC1` (some centres unmarked), with < 1 µM; and `O=C1c2cc(O)ccc2CN1C[C@H]1CC[C@H](C(O)C2CCCCC2)CC1` (some centres unmarked), with < 1 µM.
For `O=C1c2cc(O)ccc2CN1Cc1ccccc1`, the concentration for half-maximal inhibition (IC50) was 10 to 50 µM.
